Source: patent publication US4356119A, “Therapeutically active polypeptides or acid addition salts and a process for producing such compounds” (Nordisk Insulinlaboratorium, priority 1978, dated 1982)
Where a SMILES comes first, the peptide text is derived from it.

Key:
[1] = test system: fat cells; assay: insulin potentiating effect on glucose metabolism in isolated fat cells; format: cell-based; settings: 50 ng/ml insulin + 0 μg/ml peptide = 100%
Excerpt: In vitro determination of the insulin potentiating effect of the peptides on the metabolism of glucose has given the following results, the general methods being described elsewhere (3).
All other values are based on this.

[2] = test system: Langerhan's islets; assay: glucose stimulated insulin secretion from isolated Langerhan's islets; format: cell-based; settings: 10 mM glucose, hydrochlorides
Method: In vitro determination of the effect of the peptides on the glucose stimulated insulin secretion was carried out on Langerhan's islets isolated by collagenase technique and preincubated 24 hours at 37° C. Secretion tests were conducted with 10 mM of glucose and three peptide concentrations.
All peptides have been tested in the form of their hydrochlorides together with 10 mM of glucose, and the values are calculated as a percentage of the effect of 10 mM of glucose alone.

[3] = pharmacological dosages; Enk et al. (6); cited from earlier work
[4] = insulin 0 ng/ml, peptide 0.01 μg/ml
[5] = insulin 0 ng/ml, peptide 0.1 μg/ml
[6] = insulin 0 ng/ml, peptide 1 μg/ml
[7] = insulin 0 ng/ml, peptide 10 μg/ml
[8] = insulin 0 ng/ml, peptide 100 μg/ml
[9] = insulin 0.6 ng/ml, peptide 0.01 μg/ml
[10] = insulin 0.6 ng/ml, peptide 0.1 μg/ml
[11] = insulin 0.6 ng/ml, peptide 1 μg/ml
[12] = insulin 0.6 ng/ml, peptide 10 μg/ml
[13] = insulin 0.6 ng/ml, peptide 100 μg/ml
[14] = insulin 50 ng/ml, peptide 0.01 μg/ml
[15] = insulin 50 ng/ml, peptide 0.1 μg/ml
[16] = insulin 50 ng/ml, peptide 1 μg/ml
[17] = insulin 50 ng/ml, peptide 10 μg/ml
[18] = insulin 50 ng/ml, peptide 100 μg/ml

| Molecule | glucose metabolism in fat cells [1, 4] | glucose metabolism in fat cells [1, 5] | glucose metabolism in fat cells [1, 6] | glucose metabolism in fat cells [1, 7] | glucose metabolism in fat cells [1, 8] | glucose metabolism in fat cells [1, 9] | glucose metabolism in fat cells [1, 10] | glucose metabolism in fat cells [1, 11] | glucose metabolism in fat cells [1, 12] | glucose metabolism in fat cells [1, 13] | glucose metabolism in fat cells [1, 14] | glucose metabolism in fat cells [1, 15] | glucose metabolism in fat cells [1, 16] | glucose metabolism in fat cells [1, 17] | glucose metabolism in fat cells [1, 18] | glucose stimulated insulin secretion, percentage of the effect of 10 mM of glucose alone [2] | glucose stimulated insulin secretion, percentage of the effect of 10 mM of glucose alone ([2]; peptide 5 mmolar) | glucose stimulated insulin secretion, percentage of the effect of 10 mM of glucose alone ([2]; peptide 5 × 10^-2 mmolar) | blood sugar level [3] | secretion of insulin [3] |
| --- | --- | --- | --- | --- | --- | --- | --- | --- | --- | --- | --- | --- | --- | --- | --- | --- | --- | --- | --- | --- |
| COC(=O)[C@H](CCCNC(=N)N)NC(=O)[C@H](C)NC(=O)[C@H](CO)NC(=O)[C@@H](N)CC(=O)O [compound 3, asp-ser-ala-arg-OMe, 2HCl] (H-DSAR-OMe) | 8% | 8% | 8% | 8% | 16% | 90% | 85% | 80% | 80% | 100% | 114% | 112% | 108% | 108% | 124% |  |  |  |  |  |
| COC(=O)[C@H](CCCNC(=N)N)NC(=O)CNC(=O)CNC(=O)CNC(=O)[C@@H](N)CCC(=O)O [compound 6, glugly-gly-gly-arg-OMe, 2HCl] (H-EGGGR-OMe) |  |  |  |  | 10% |  |  |  |  | 89% |  |  |  |  | 121% |  |  |  |  |  |
| glu-leu-ser-arg-OMe, 2HCl [compound 1] | 22% | 22% | 22% | 22% | 22% | 94% | 90% | 88% | 91% | 108% | 118% | 113% | 112% | 113% | 126% | 59% | 51% | 76% |  |  |
| glu-leu-ser-arg-leu-arg-OMe, 3HCl [compound 2] | 20% | 20% | 21% | 20% | 15% | 83% | 88% | 86% | 85% | 55% | 114% | 112% | 108% | 112% | 70% | 73% | 113% | 66% |  |  |
| glu-leu-ser-arg-leu-arg-asp-ser-ala-arg-OMe, 4HCl [compound 4] |  |  |  |  |  |  |  |  |  |  |  |  |  |  |  | 41% | 9% | 96% |  |  |
| secretin |  |  |  |  |  |  |  |  |  |  |  |  |  |  |  |  |  |  | without affecting the blood sugar level | potentiate secretion of insulin |
